We go through 19 compounds from patent publication EP4768471A1, “SIX-MEMBERED AND FIVE-MEMBERED FUSED RING DERIVATIVE, AND PREPARATION METHOD THEREFOR AND USE THEREOF” (Guangdong Hengqin Novagains Biopharmaceutical Co., Ltd., priority 2023, dated 2025).

Series [1] deals with T1, human urate transporter 1 (hURAT1) (Homo sapiens, UniProt Q96S37).
T1 construct: host or cells: Flp-In-T-REx-293 (HEK293-derived), doxycycline-induced
T1 sequence (Q96S37 1-553): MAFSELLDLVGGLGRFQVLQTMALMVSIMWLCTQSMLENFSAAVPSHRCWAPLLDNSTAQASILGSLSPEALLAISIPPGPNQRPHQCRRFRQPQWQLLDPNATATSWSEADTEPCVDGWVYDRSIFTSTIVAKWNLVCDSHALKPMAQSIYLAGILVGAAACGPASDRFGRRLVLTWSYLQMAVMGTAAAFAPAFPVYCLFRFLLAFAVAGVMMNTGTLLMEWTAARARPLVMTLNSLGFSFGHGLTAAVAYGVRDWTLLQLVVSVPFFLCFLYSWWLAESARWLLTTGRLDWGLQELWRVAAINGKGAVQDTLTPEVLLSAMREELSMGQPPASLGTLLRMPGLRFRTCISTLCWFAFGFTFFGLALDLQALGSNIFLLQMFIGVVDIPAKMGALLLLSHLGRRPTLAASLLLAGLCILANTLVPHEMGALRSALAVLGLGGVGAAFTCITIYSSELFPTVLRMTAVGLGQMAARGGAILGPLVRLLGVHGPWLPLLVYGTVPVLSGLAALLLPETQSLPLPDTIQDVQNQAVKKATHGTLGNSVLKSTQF
The series can be described thus: Inhibitory activity against urate transporter URAT1 (14C-uric acid uptake in Flp-In-T-REx-293-hURAT1 cells). The series is classed as cell-based. How it is done: Inhibitory activity of each compound against urate transporter URAT1 was tested. Compounds: the compounds of the present disclosure were prepared according to the methods in examples; Verinurad was purchased commercially; and CDER167 was prepared according to the method described in the literature (doi: 10.1038/s41401-021-00640-5). Cells: Flp-In-T-REx-293-hURAT1 cells capable of expressing human urate transporter 1 (hURAT1), were purchased from Pharmaron Beijing Co., Ltd., China or can be generated (e.g., by transfecting hURAT1 genes into commercially available Flp-In-T-REx-293 cells according to the method described in the literature doi: 10.1124/dmd.106.012187, and the expression of the hURAT1 genes can be verified by methods such as Western blotting). [drawing 76] The Flp-In-T-REx-293-hURAT1 cells were cultured in a Dulbecco's Modified Eagle Medium (DMEM) in 75 cm^2 flasks under 5% CO2 and 37°C, and passaged every two days. […] The cells were resuspended in the DMEM and then counted, and subsequently prepared into a cell suspension with a proper density. The cells were seeded into a 96-well plate and cultured in a 37°C and 5% CO2 incubator for 24 h. The culture medium was removed, and DMEM containing 200 ng/mL doxycycline was added. The cells were then placed back into the 37°C and 5% CO2 incubator and cultured for 18 h. The test compounds were serially diluted 3-fold in DMSO starting from 10 mmol/L to prepare 10 stock solutions at varying concentrations. A buffer solution was prepared, which contained 125 mmol/L sodium gluconate, 4.8 mmol/L potassium gluconate, 5.6 mmol/L glucose, 1.2 mmol/L potassium dihydrogen phosphate, 1.2 mmol/L magnesium sulfate, 1.3 mmol/L calcium gluconate and 25 mmol/L HEPES (pH = 7.4). 1.2 µL of each test compound stock solution was mixed with 119 µL of buffer to form an assay buffer. After induction for 16 h, the culture medium was removed, and the cells were washed with a prewarmed buffer and incubated for 10 min at 37°C. The buffer was then removed, and an assay buffer containing 50 µmol/L ^14C-uric acid and the test compound was added to the cells, and then the cells were incubated at 37°C for 5 min. The buffer was removed, the cells were washed three times with a precool buffer. Subsequently, 100 mmol/L NaOH was added to lyse the cells for 20 min. The lysate was transferred to a 96-well plate, and then 200 µL of UltimaGold XR scintillation cocktail was added, and radioactivity was measured using a MicroBeta^2 (PerkinElmer). The half-maximal inhibitory concentration (IC50) of each test compound was calculated via GraphPad Prism 8 software using a nonlinear regression fitting equation. The IC50 values were categorized by the following grades: […] Table 2 Inhibitory activity (IC50) of some compounds in the present disclosure against urate transporter

Another series deals with ICR mice. In words: Toxicity test: 28-day repeated administration in mice, histopathological examination of liver and kidney. The settings on record: intragastric gavage 200 mg/kg once daily for 28 consecutive days, 8 mice per group.
The mark [2] stands for this setting: Flp-In-T-REx-293-hURAT1 cells, 50 µmol/L 14C-uric acid, 5 min at 37°C, read-out: IC50.

Read-outs that look alike come from different tables or passages of the source.

Protocol for ICR mice: The toxicity of each compound was evaluated following 28-day repeated administration in mice.
Method: ICR mice that passed quarantine were selected, with equal numbers of males and females. The mice were randomly grouped based on body weight and sex, with 8 mice per group. The test compounds included the compounds of the present disclosure and a positive drug Verinurad. The test compounds were administered to the animals via intragastric gavage at a dosage of 200 mg/kg, once daily for 28 consecutive days. Detailed clinical observations were performed after each administration, with at least 2 h observation following the first administration or upon detection of abnormalities. In addition, cage-side observations were conducted once daily in the afternoon. Observations included clinical signs (animal appearance, behavior, diet, response to stimuli, secretions and excretions) and mortality (time of death or time of discovery of death, pre-mortem signs, etc.). In addition, the symptoms of animals, and the onset, severity, and duration of any observed clinical symptoms of animals were recorded. On Day 28 of administration, the mice were euthanized immediately after blood collection was completed and subjected to necropsy. Livers and left kidneys were collected for paraffin embedding, sectioning and hematoxylin-eosin (HE) staining, followed by histopathological examination to observe tissue lesions. Special attention was paid to the degeneration and inflammatory changes in glomeruli and renal tubules, as well as the presence of urea crystals. The animals euthanized due to found moribund or the animals dead during the experiment were subjected to necropsy promptly.

With `CC(C)(Sc1ccccc1Cn1cc(C#N)c2ccc(F)cc21)C(=O)O` [Compound F-16], the IC50 in series [1] was in the range of 100 to 500 nM. Besides, in the series with ICR mice, the “hepatic or renal toxicity upon histopathological examination” value was “no hepatic or renal toxicity”.

For the compound `N#Cc1cn(Cc2ccccc2SC2(C(=O)O)CCC2)c2ncccc12` [Compound F-20], the IC50 in series [1] was 100 to 500 nM. In addition, the “hepatic or renal toxicity upon histopathological examination” value in the series with ICR mice is “no hepatic or renal toxicity”.

As for `CC(C)(Sc1ccc(Br)cc1Cn1cc(C#N)c2ccccc21)C(=O)O` [Compound F-11], in series [1] (setting [2]), the IC50 was 100 to 500 nM. In addition, in the series on ICR mice, the “hepatic or renal toxicity upon histopathological examination” value is on record as “no hepatic or renal toxicity”.

On to `CC(C)(Sc1ccccc1Cn1cc(C#N)c2cncnc21)C(=O)O` [Compound F-08], for which, in series [1] (setting [2]), the IC50 fell in the range of 100 to 500 nM. The “hepatic or renal toxicity upon histopathological examination” value in the series on ICR mice is given as “no hepatic or renal toxicity”.

In the case of `CC(C)(Sc1ccc(F)cc1Cn1cc(C#N)c2ccccc21)C(=O)O` [Compound F-09], the concentration for half-maximal inhibition (IC50) in series [1] is 100 to 500 nM. Besides, in the series with ICR mice, the “hepatic or renal toxicity upon histopathological examination” value was “no hepatic or renal toxicity”.

As for `CC(C)(Sc1ccncc1Cc1ccc(C#N)c2ccccc12)C(=O)O` [CDER167, reference compound], in series [1] (setting [2]), the IC50 is > 1000 nM.

As for `CC(C)(Sc1ccccc1Cn1cc(C#N)c2c(F)cccc21)C(=O)O` [Compound F-14], the IC50 in series [1] lay in the range of 100 to 500 nM. The “hepatic or renal toxicity upon histopathological examination” value in the series with ICR mice is given as “no hepatic or renal toxicity”.

With `N#Cc1cn(Cc2cc(Cl)ccc2SC2(C(=O)O)CCC2)c2ncccc12` [Compound F-27], the IC50 in series [1] (setting [2]) is 100 to 500 nM. The “hepatic or renal toxicity upon histopathological examination” value in the series with ICR mice is given as “no hepatic or renal toxicity”.

In the case of `CC(C)(Sc1ccc(Cl)cc1Cn1cc(C#N)c2ccccc21)C(=O)O` [Compound F-10], the IC50 in series [1] (setting [2]) lay in the range of 100 to 500 nM. Also, the “hepatic or renal toxicity upon histopathological examination” value with ICR mice is reported as “no hepatic or renal toxicity”.

Turning to `CC(C)(Sc1ccncc1-c1ccc(C#N)c2ccccc12)C(=O)O` [Verinurad, reference compound], in series [1] (setting [2]), the IC50 was in the range of 500 to 1000 nM. For the same compound, in the series with ICR mice, the “renal toxicity (number of mice affected)” value is 3 out of 8 and the “renal toxicity (percentage of mice affected)” value is 37.5%.

In series [1], `N#Cc1cn(Cc2cc(F)ccc2SC2(C(=O)O)CCC2)c2ncccc12` [Compound F-26] came in with an IC50 of 100 to 500 nM. Moreover, the “hepatic or renal toxicity upon histopathological examination” value with ICR mice is “no hepatic or renal toxicity”.

For the compound `COc1ccc(SC2(C(=O)O)CCC2)c(Cn2cc(C#N)c3cccnc32)c1` [Compound F-30], the IC50 in series [1] (setting [2]) was 100 to 500 nM. The “hepatic or renal toxicity upon histopathological examination” value in the series with ICR mice is recorded as “no hepatic or renal toxicity”.

In series [1], `CC(C)(Sc1ccccc1Cn1cc(C#N)c2cccc(F)c21)C(=O)O` [Compound F-17] gave an IC50 of 100 to 500 nM. The “hepatic or renal toxicity upon histopathological examination” value in the series on ICR mice is “no hepatic or renal toxicity”.

In series [1], `CC(C)(Sc1ccccc1Cn1cc(C#N)c2ccccc21)C(=O)O` [Compound F-02] gave an IC50 of 100 to 500 nM. Further, the “hepatic or renal toxicity upon histopathological examination” value in the series with ICR mice is given as “no hepatic or renal toxicity”.

`Cc1ccc(SC(C)(C)C(=O)O)c(Cn2cc(C#N)c3ccccc32)c1` [Compound F-12]: in series [1], the IC50 fell in the range of 100 to 500 nM. In addition, the “hepatic or renal toxicity upon histopathological examination” value with ICR mice is reported as “no hepatic or renal toxicity”.

As for `CC(C)(Sc1ccccc1Cn1cc(C#N)c2cccnc21)C(=O)O` [Compound F-07], the IC50 in series [1] is < 100 nM. The “hepatic or renal toxicity upon histopathological examination” value in the series with ICR mice is on record as “no hepatic or renal toxicity”.

With `N#Cc1cn(Cc2cc(Br)ccc2SC2(C(=O)O)CCC2)c2ncccc12` [Compound F-28], in series [1] (setting [2]), the IC50 is 100 to 500 nM. Besides, in the series with ICR mice, the “hepatic or renal toxicity upon histopathological examination” value is reported as “no hepatic or renal toxicity”.

On to `COc1ccc(SC(C)(C)C(=O)O)c(Cn2cc(C#N)c3ccccc32)c1` [Compound F-13], for which the IC50 in series [1] (setting [2]) was 100 to 500 nM. Besides, in the series on ICR mice, the “hepatic or renal toxicity upon histopathological examination” value was “no hepatic or renal toxicity”.

Turning to `CC(C)(Sc1ccccc1Cn1cc(C#N)c2cnccc21)C(=O)O` [Compound F-05], the IC50 in series [1] (setting [2]) is < 100 nM. In addition, the “hepatic or renal toxicity upon histopathological examination” value in the series on ICR mice is on record as “no hepatic or renal toxicity”.

What is called IC50 is the concentration at which inhibition is half-maximal.
